In ChEMBL document CHEMBL3886469, “Pyrrolo pyrimidine derivatives” (2016):

Columns and labels:
[1] = molecular target: T1, Tyrosine-protein kinase BTK (Homo sapiens, UniProt Q06187); assay: Biochemical Enzyme Assay: The inhibitory activity of the present compounds against Btk was assessed in a biochemical enzyme assay. Assay plates in 384 well format were prepared with 8-point serial dilutions for the test compounds on a Thermo CatX workstation equipped with a Innovadyne Nanodrop Express. The assay plates were prepared by addition of 50 nl per well of compound solution in 90% DMSO. The kinase reactions were started by stepwise addition of 4.5 ul per well of peptide/ATP-solution (4 uM FITC-Ahx-[…]-NH2, 164 uM ATP) in kinase buffer (50 mM HEPES, pH 7.5, 1 mM DTT, 0.02% Tween20, 0.02% BSA, 0.6% DMSO, 10 mM beta-glycerophosphate, and 10 uM sodium orthovanadate, 18 mM MgCl2, 1 mM MnCl2) and 4.5 ul per well of enzyme solution (6.4 nM full-length human recombinant BTK) in kinase buffer. Kinase reactions were incubated at 30° C. for 60 minutes and subsequently terminated by addition of 16 ul per well of stop solution (100 mM HEPES pH 7.5, 5% DMSO, 0.1% Caliper coating reagent, 10 mM EDTA, and 0.015% Brij35). Kinase reactions were analyzed on a Caliper LC3000 workstation by separating phosphorylated and unphosphorylated peptides and kinase activities were calculated from the amounts of newly formed phospho-peptide. Inhibition data were calculated by comparison to control reactions without enzyme (100% inhibition) and without inhibitors (0% inhibition).
[2] = molecular target: T1, Tyrosine-protein kinase BTK; assay: Cellular Assay: Alternatively, the present compounds might also be assessed for their capacity to inhibit Btk-dependent FcG receptor-induced IL-8 secretion in human cells. The human myeloid leukemia THP1 cell line (ATCC TIB202) was grown in RPMI 1640 medium supplemented with 10% FCS and 15 nM 1, 25-dihydroxy Vitamin D3 during 4 days before use to induced myeloid differentiation. A sufficient number of tissue-culture grade 384-well plates was coated with human IgG of unknown specificity by incubating overnight at 4° C. with 40 ul/well of a 50 ug/ml IgG solution in PBS. On the day of the experiment, plates were washed 5 times with 80 ul water on a Molecular Devices Aquamax DW4 plate washer. Solutions of the test compounds in 90% DMSO were added to each well on a Hamilton Microlab Star liquid handling station to 40 ul/well tissue culture medium and the total DMSO concentration was adjusted to 0.1%. Differentiated THP1 cells were then added in 40 ul/well to reach a final density of 5'000 cells/well in 80 ul culture medium. After 24 hours, IL-8 secretion was measured in the supernatant by the IL-8 HTRF assay following the protocol of the vendor (CisBio international).; type: cell-based, THP-1

T1 sequence (Q06187 whole entry): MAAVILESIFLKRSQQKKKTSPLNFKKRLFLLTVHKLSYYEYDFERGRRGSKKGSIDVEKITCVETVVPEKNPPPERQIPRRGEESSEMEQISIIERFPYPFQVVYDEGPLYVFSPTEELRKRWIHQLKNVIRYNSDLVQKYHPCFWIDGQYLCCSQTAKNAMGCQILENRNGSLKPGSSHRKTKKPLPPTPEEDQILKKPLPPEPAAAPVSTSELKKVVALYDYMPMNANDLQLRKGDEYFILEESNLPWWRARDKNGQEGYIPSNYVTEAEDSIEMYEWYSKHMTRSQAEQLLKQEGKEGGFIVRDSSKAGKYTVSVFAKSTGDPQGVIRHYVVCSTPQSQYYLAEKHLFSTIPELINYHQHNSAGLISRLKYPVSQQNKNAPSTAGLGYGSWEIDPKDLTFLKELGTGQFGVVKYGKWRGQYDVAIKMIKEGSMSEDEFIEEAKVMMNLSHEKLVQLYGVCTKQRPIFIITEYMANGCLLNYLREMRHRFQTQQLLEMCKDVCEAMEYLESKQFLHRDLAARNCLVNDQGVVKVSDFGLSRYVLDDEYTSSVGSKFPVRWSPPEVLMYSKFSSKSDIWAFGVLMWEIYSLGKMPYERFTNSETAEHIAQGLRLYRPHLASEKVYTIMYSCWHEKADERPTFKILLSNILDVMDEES

Row | Compound | IC50 [1] [nM] | IC50 [2] [nM]
1 | Cc1c(NC(=O)c2ccc(C(C)(C)O)cc2F)cc(F)cc1-c1ncnc2[nH]c(C3=CCN(C(=O)N(C)C)CC3)cc12 | 13 | –
2 | Cc1c(NC(=O)c2ccc(C3CC3)cc2)cc(F)cc1-c1ncnc2[nH]c(C3=CCN(C(=O)CC#N)CC3)cc12 | 4 | –
3 | Cc1c(NC(=O)c2ccc(C(C)(C)C)cc2)cc(F)cc1-c1ncnc2[nH]c(C3=CCC4(CC3)OCCO4)cc12 | 110 | –
4 | Cc1c(NC(=O)c2ccc(C(C)(C)C)cc2)cc(F)cc1-c1ncnc2[nH]c(C3=CCSCC3)cc12 | 23 | 94
5 | C=C(C)c1ccc(C(=O)Nc2cc(F)cc(-c3ncnc4[nH]c(C5=CCN(C(=O)N(C)C)CC5)cc34)c2C)cc1 | 3 | –
